Data from publication PMC3805573, “Methylglyoxal Evokes Pain by Stimulating TRPA1” (PLoS ONE, 2013).

How the values were obtained:
TRPA1 = assay: Outward TRPA1 currents in absence of Ca2+, effect of DTT; format: cell-based; details: +60 mV, Ca2+-free
Method: DRG neurons and TRPA1 CHO cells were studied under voltage-clamp conditions using an Axopatch 200B amplifier and pClamp 10.0 software (Molecular Devices, Sunnyvale, CA). Except where stated otherwise, whole cell recordings were performed at a holding potential of –60 mV using an extracellular solution with the composition described above for [Ca^2+]i measurements. Borosilicate glass pipettes (2–5 MΩ, 75–80% series resistance compensation) were filled with (in mM) 140 KCl, 1 CaCl2, 2 MgATP, 10 EGTA, and 10 HEPES buffered to pH 7.4 (KOH). Excised inside-out patches were recorded using a Ca^2+-free solution containing (in mM) 140 NaCl, 5 KCl, 1 MgCl2, 10 HEPES and 1 EGTA, pH 7.4 (NaOH) in the pipettes and perfused with 140 KCl, 2 MgATP, 1 EGTA, and 10 HEPES (pH 7.4). DRG neurons were studied using an intracellular solution containing (in mM) 140 CsCl, 1 CaCl2, 2 MgATP, 10 EGTA and 10 HEPES, pH 7.4 (CsOH). Drugs were applied by local microperfusion with a rapid solution changer (RSC-200, Biologic, Claix, France).
It is possible that MG stimulates TRPA1 through formation of reversible hemithioacetals with cysteine residues other than those examined here, [40]. To investigate this possibility we examined the effect of the reducing agent dithiothreitol (DTT, 2 mM) on outward TRPA1 currents recorded in the absence of Ca^2+ (5 mM BAPTA intracellularly, 1 mM EGTA extracellularly) to avoid Ca^2+-mediated inactivation or desensitization. We used DTT to determine whether disulfide bridge formation or reversible noncovalent interactions contribute to the agonist activity of MG. DTT is expected to rapidly reduce cystine bridges to free thiols, but also to form hemithioacetals with MG, thereby accelerating current decay. Covalent modification of arginine and lysine residues by MG and modification of cysteine residues by AITC are on the other hand resistant to DTT [31]. […] This is consistent with the expected oxidative formation of cystine bridges and their reduction by DTT [4]. The contrast between the stable currents produced by H2O2 and the spontaneously reversible currents evoked by MG highlights the reversible nature of the interaction between MG and TRPA1. […] We also observed that repeated applications of MG and H2O2 evoked reproducible current responses of similar amplitudes, whereas an application of AITC prevented subsequent channel activation by AITC challenges (Fig. 4C-E). We conclude that MG acts through a reversible interaction with TRPA1 and that H2O2 relies on DTT sensitive oxidative modification of TRPA1 protein for its activity. […] In contrast, the covalent modification produced by AITC appears irreversible and renders TRPA1 refractory to subsequent activation.

MDCK cells = assay: [Ca2+]i-measurements in MDCK cells; format: cell-based, Canine
Method: MDCK cells were grown in DMEM (Invitrogen) supplemented with 5% fetal bovine serum, 100 U/ml penicillin and 100 µg/ml streptomycin. […] The experiments were performed in a physiological saline solution containing (in mM) 140 NaCl, 5 KCl, 10 glucose, 10 HEPES, 2 CaCl2, and 1 MgCl2, buffered to pH 7.4 with NaOH. Compounds were applied to cells by local continuous microperfusion of solution through a fine tube placed in close proximity of the cells studied. […] Analyses of emission intensity ratios at 340 nm/380 nm excitation (R, in individual cells) were performed using the ImageMaster suite of software. […] Cells grown in 96 well black walled plates (Costar, Tewksbury, MA) were loaded with Fura 2-AM in the presence of 1 mM probenecid at 37°C for 1–1.5 hours and assays were carried out at 25°C. Basal emission ratios (340 nm/380 nm) were measured and changes in ratio determined at various times after compound addition.

[1] = system: human TRPA1 C621S, C641S or C665S; assay: [Ca2+]i-responses of human TRPA1 point mutants C621S, C641S, C665S; format: cell-based; details: human TRPA1 single point mutants vs wildtype
Method: (§1) Untransfected CHO cells and CHO cells expressing mouse or human TRPA1 were grown in MEM Glutamax or AQ medium supplemented with penicillin (100 U/ml), streptomycin (100 µg/ml), and FCS (10%). Plasmids encoding mutated TRPA1 channels were kindly provided by Dr. Ardem Patapoutian. All media, serum and antibiotics were from Invitrogen (Paisley, UK) or Sigma (Poole, UK).
Cells were loaded with 2 µM Fura-2 AM (Molecular Probes, Paisley, UK) in the presence of 1 mM probenecid for ∼1 hr. The experiments were performed in a physiological saline solution containing (in mM) 140 NaCl, 5 KCl, 10 glucose, 10 HEPES, 2 CaCl2, and 1 MgCl2, buffered to pH 7.4 with NaOH. Compounds were applied to cells by local continuous microperfusion of solution through a fine tube placed in close proximity of the cells studied. Images of a group of cells were captured every 2 sec using 340 and 380 nm excitation wavelengths with emission measured at 520 nm with a microscope based imaging system (PTI, New Jersey). […]
Changes in intracellular calcium ([Ca^2+]i) in response to agonists were determined in TRPA1 expressing CHO cells and MDCK cells using a Flexstation 3 (Molecular Devices). […] Basal emission ratios (340 nm/380 nm) were measured and changes in ratio determined at various times after compound addition.

mTRPA1 K712Q = molecular target: T1, mTRPA1 K712Q (Mus musculus, UniProt Q8BLA8, K712Q); assay: [Ca2+]i-responses of mTRPA1 K712Q in CHO cells; format: cell-based
T1 construct: expressed in transfected cells; host or cells: CHO cells
T1 sequence (Q8BLA8 whole entry K712Q): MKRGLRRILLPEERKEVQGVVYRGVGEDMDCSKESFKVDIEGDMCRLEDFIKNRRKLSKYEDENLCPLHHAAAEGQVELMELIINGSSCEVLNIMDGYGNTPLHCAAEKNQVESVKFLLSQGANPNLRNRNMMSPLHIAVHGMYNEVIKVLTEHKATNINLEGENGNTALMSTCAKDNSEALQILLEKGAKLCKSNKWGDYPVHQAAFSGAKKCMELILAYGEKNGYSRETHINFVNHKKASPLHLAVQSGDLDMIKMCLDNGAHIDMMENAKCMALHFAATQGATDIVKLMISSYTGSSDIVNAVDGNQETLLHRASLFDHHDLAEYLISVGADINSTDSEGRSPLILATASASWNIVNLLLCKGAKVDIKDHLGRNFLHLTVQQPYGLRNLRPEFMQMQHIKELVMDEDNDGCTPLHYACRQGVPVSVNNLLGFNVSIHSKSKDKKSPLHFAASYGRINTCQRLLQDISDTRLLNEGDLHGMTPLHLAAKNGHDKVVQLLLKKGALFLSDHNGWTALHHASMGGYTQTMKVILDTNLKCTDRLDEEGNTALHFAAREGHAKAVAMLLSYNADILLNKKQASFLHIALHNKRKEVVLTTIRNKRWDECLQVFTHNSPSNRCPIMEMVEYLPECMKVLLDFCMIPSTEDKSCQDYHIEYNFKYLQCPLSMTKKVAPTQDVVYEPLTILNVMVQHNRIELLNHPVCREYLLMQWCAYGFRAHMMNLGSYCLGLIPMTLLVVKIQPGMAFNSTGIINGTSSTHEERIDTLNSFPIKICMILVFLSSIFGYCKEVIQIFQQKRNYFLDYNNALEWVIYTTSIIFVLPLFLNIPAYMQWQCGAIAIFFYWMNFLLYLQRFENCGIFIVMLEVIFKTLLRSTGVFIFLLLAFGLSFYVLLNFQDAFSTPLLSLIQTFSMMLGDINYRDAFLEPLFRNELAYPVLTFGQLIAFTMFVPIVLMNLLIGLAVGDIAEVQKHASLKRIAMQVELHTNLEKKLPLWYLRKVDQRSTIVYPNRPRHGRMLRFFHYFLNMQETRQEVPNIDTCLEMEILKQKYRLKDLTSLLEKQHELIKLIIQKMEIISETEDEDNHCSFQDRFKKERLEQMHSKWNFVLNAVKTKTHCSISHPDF
Method: as §1
(§2) Cells were loaded with 2 µM Fura-2 AM (Molecular Probes, Paisley, UK) in the presence of 1 mM probenecid for ∼1 hr. The experiments were performed in a physiological saline solution containing (in mM) 140 NaCl, 5 KCl, 10 glucose, 10 HEPES, 2 CaCl2, and 1 MgCl2, buffered to pH 7.4 with NaOH. Compounds were applied to cells by local continuous microperfusion of solution through a fine tube placed in close proximity of the cells studied. Images of a group of cells were captured every 2 sec using 340 and 380 nm excitation wavelengths with emission measured at 520 nm with a microscope based imaging system (PTI, New Jersey). Analyses of emission intensity ratios at 340 nm/380 nm excitation (R, in individual cells) were performed using the ImageMaster suite of software.

beta cells = assay: [Ca2+]i-responses in pancreatic beta cells; format: cell-based, mice; details: AITC, cells from wildtype or Trpa1-/- mice (data not shown)
Method: Mouse islets of Langerhans were isolated from the exocrine pancreas by collagenase digestion (1 mg/ml, type XI, Sigma, Poole, UK). Islets were dissociated by 15 min incubation in trypsin (0.5%, Sigma, Poole, UK) followed by trituration through a flame polished glass Pasteur pipette and the islet cells were seeded on glass cover slips.
as §2

[2] = system: Trpa1+/+ and Trpa1-/- mice; assay: Two week GLO-1 inhibition, nociceptive responses to cold, heat and mechanical stimulation; format: in vivo
Method: Data shown are from male and female homozygote Trpa1^− ^/− and Trpa1 ^+/+. The Trpa1-null mice and wild-type littermates were bred from heterozygotic mice provided by Drs. Kelvin Kwan and David Corey (Harvard Medical School, Boston, MA).
(§3) Mechanical thresholds were measured using an Analgesymeter (Ugo-Basile, Milan). Mice were kept in their holding cages to acclimatize (10–15 min) to the experimental room. The experimenter then lightly restrained the mouse and applied an increasing pressure stimulus to the dorsal surface of the hind paw using a blunt conical probe. The nociceptive threshold was defined as the force in grams at which the mouse withdrew its paw. In order to avoid tissue injury a 150 g force cut-off value was used.
Tactile allodynia was assessed by measuring withdrawal thresholds to calibrated von Frey filaments (0.008–2 g). Animals were placed in a Perspex chamber with a metal grid floor giving access to the underside of their paws and allowed to acclimatize prior to the start of the experiment. Von Frey filaments were applied perpendicular to the mid plantar surface of the hind paw with sufficient force to cause slight bending against the paw and held for a few seconds. This was repeated 5 times at intervals of 1–2 s. A positive response was noted if the paw was sharply withdrawn or there was flinching upon removal of the hair. […] Using a modified ‘up-down’ method the lowest force filament producing a positive response was recorded as the threshold.
Heat and cold sensitivities were assessed by measuring the time for paw withdrawal from a 50°C hotplate or 10°C coldplate (Ugo Basile, Milan) of lightly restrained mice.
(§4) Methylglyoxal (250 nmoles in 25 µl saline) was injected subcutaneously into the plantar surface of one of the hind paws using a 50 µl luer-syringe (Hamilton Co.) fitted with a 26-gauge x 3/8 inch intradermal needle. Immediately after injection, mice were placed inside a Perspex chamber and the duration of the pain-related behaviors (licking and biting or flinching and shaking of the injected paw) recorded using a digital stop-watch. […]

[3] = system: Trpa1+/+ and Trpa1-/- mice; assay: Intraepidermal nerve fiber density in plantar skin (PGP9.5); format: in vivo; details: 2 weeks treatment, 50 mg/kg every other day, either genotype
Method: Formalin fixed plantar skin was embedded in paraffin wax and cut in 8 µm sections and stained with rabbit polyclonal anti-PGP9.5 (1 in 5000, Ultraclone Ltd, UK) after citric acid heat induced epitope retrieval. Staining was visualized using anti-rabbit IgG labeled with Alexa-594. The number of PGP9.5 positive fibers crossing the basal membrane into the epidermis was determined in n = 6 mice for each group on a Zeiss Axioplan 2 microscope. The observer was blinded to the treatment.

mice = assay: Acute GLO-1 inhibition, paw pressure and von Frey tests; format: in vivo; details: 1 h after administration, 50 mg/kg i.p.
Method: as §3
Tactile allodynia was assessed by measuring withdrawal thresholds to calibrated von Frey filaments (0.008–2 g). Animals were placed in a Perspex chamber with a metal grid floor giving access to the underside of their paws and allowed to acclimatize prior to the start of the experiment. […] Using a modified ‘up-down’ method the lowest force filament producing a positive response was recorded as the threshold.
as §4

[4] = system: Trpa1+/+ and Trpa1-/- mice; assay: Glucose tolerance test, blood glucose; format: in vivo
Method: The glucose tolerance test was performed in mice (not fasted) treated i.p. with 2 g/kg glucose or vehicle (0.2 ml, 0.9% saline). HC030031 (100 mg/kg) or vehicle (DMSO 10%, Tween 80 5%, 0.9% saline 85%) was administered i.p. 30 min before glucose or vehicle. Glucose concentrations were determined using a Contour blood glucose meter (Bayer Diabetes Care) in blood samples taken from the tail-tip.

SMILES: C=CCN=C=S [AITC]
- effect of DTT (2 mM) on agonist-evoked TRPA1 current (TRPA1; AITC 50 µM): resistant to treatment with DTT
- outward TRPA1 current after removal of agonist (TRPA1; AITC 50 µM): declined with time after removal of AITC
- [Ca2+]i-influx response (MDCK cells; 100 µM): evoked [Ca^2+]i-influx responses
- EC50 (MDCK cells; read-out: EC50, [Ca2+]i-responses): 9.1 ± 2 µM
- effect of substitutions C621S, C641S, C665S on sensitivity to AITC [1]: very substantially reduced
- amplitude of [Ca2+]i-responses in mTRPA1 K712Q compared to WT mTRPA1 (mTRPA1 K712Q; AITC 50 µM): significantly reduced
- [Ca2+]i-responses in beta cells (beta cells): failed to elicit [Ca^2+]i-responses

SMILES: CC(=Cc1ccc(Cl)cc1)C(C)=NO [AP18, 4-(4-chlorophenyl)-3-methylbut-3-en-2-one oxime]
- effect on concentration-response curves for AITC and MG (MDCK cells; AP18 10 µM): produced similar rightward shifts

SMILES: NC(CCC(=O)NC(CSCc1ccc(Br)cc1)C(=O)NCC(=O)OC1CCCC1)C(=O)OC1CCCC1 (stereo not drawn) [GLO-1 inhibitor, Sr-p-Bromobenzylglutathione cyclopentyl diester]
- sensitivity to all four test modalities ([2]; Trpa1+/+ mice, after day 4, 7 administrations over 2 weeks, 50 mg/kg i.p.): progressively increased
- sensitivity to cold, heat, paw-pressure and von Frey stimulation ([2]; first 4 days of the study, 50 mg/kg i.p. every 2 days): no increased sensitivity in any of the tests
- persistence of hypersensitivities ([2]; two weeks after cessation of drug administration): no sign of reversal
- IENF density compared to vehicle treated mice [3]: failed to produce a significant reduction
- sensitivity in the paw pressure test (mice): unaffected
- sensitivity in the von Frey filaments test (mice): unaffected

SMILES: CC(C)c1ccc(NC(=O)Cn2cnc3c2c(=O)n(C)c(=O)n3C)cc1 [HC030031]
- blood glucose in mice not challenged with glucose ([4]; 100 mg/kg i.p.): increased the blood glucose
- blood glucose following a glucose challenge ([4]; 100 mg/kg i.p. 30 min before glucose 2 g/kg i.p., both Trpa1+/+ and Trpa1-/- mice): dramatically enhanced the increase in blood glucose

SMILES: O=C/C=C/c1ccccc1 [cinnamaldehyde]
- [Ca2+]i-influx response (MDCK cells; 1 mM): evoked [Ca^2+]i-influx responses

SMILES: OO [hydrogen peroxide]
- effect of DTT (2 mM) on agonist-evoked TRPA1 current (TRPA1; H2O2 5 mM): rapidly reduced the current amplitude
- outward TRPA1 current after removal of agonist (TRPA1; H2O2 5 mM): remained at a stable amplitude after removal of H2O2
- [Ca2+]i-influx response (MDCK cells; 20 mM): evoked [Ca^2+]i-influx responses

SMILES: CC1=C[C@H]2c3c(O)cc(C)cc3OC(C)(C)[C@@H]2CC1 [Δ^9-tetrahydrocannabiorcol]
- amplitude of [Ca2+]i-responses in mTRPA1 K712Q compared to WT mTRPA1 (mTRPA1 K712Q; 20 µM (Fig. 4D)): significantly reduced
